Data published in ChEMBL document CHEMBL4422644, “Synthesis and evaluation of α-aminoacyl amides as antitubercular agents effective on drug resistant tuberculosis” (Eur J Med Chem, 2019).
In brackets after ≈: the same amount, converted by molar mass.

What was measured:
Type in all cases: functional
[1] = test system: Mycobacterium tuberculosis; assay: Antitubercular activity against multidrug-resistant Mycobacterium tuberculosis isolate 4 after 7 days; details: isolate 4, 168 h
[2] = test system: Mycobacterium tuberculosis; assay: Antitubercular activity against isoniazid/rifampicin resistant Mycobacterium tuberculosis isolate 5 after 7 days; details: isolate 5, 168 h
[3] = test system: Mycobacterium tuberculosis; assay: Antitubercular activity against isoniazid/ethionamide resistant Mycobacterium tuberculosis isolate 1 after 7 days; details: isolate 1, 168 h
[4] = test system: Mycobacterium tuberculosis; assay: Antitubercular activity against multidrug-resistant Mycobacterium tuberculosis isolate 6 after 7 days; details: isolate 6, 168 h
[5] = test system: Mycobacterium tuberculosis; assay: Antitubercular activity against isoniazid/ethionamide resistant Mycobacterium tuberculosis isolate 2 after 7 days; details: isolate 2, 168 h
[6] = test system: Mycobacterium tuberculosis; assay: Antitubercular activity against multidrug-resistant Mycobacterium tuberculosis isolate 3 after 7 days; details: isolate 3, 168 h
[7] = test system: Mycobacterium tuberculosis; assay: Antitubercular activity against multidrug-resistant Mycobacterium tuberculosis isolate 8 after 7 days; details: isolate 8, 168 h
[8] = test system: Mycobacterium tuberculosis; assay: Antitubercular activity against multidrug-resistant Mycobacterium tuberculosis isolate 7 after 7 days; details: isolate 7, 168 h

SMILES	MIC [1] [µg/mL]	MIC [2] [µg/mL]	MIC [3] [µg/mL]	MIC [4] [µg/mL]	MIC [5] [µg/mL]	MIC [6] [µg/mL]	MIC [7] [µg/mL]	MIC [8] [µg/mL]
Cc1nc(C)c(C(=O)N(c2cccc(C)c2C)C(C(=O)NC2CCCCC2)c2cccnc2)s1 (stereo not drawn)	2 (≈ 4.2 µM)	2 (≈ 4.2 µM)	4 (≈ 8.39 µM)	8 (≈ 16.8 µM)	1 (≈ 2.1 µM)	1 (≈ 2.1 µM)	8 (≈ 16.8 µM)	2 (≈ 4.2 µM)
CC[C@@H](CO)NCCN[C@@H](CC)CO [ETHAMBUTOL]	8 (≈ 39.2 µM)	–	2 (≈ 9.79 µM)	4 (≈ 19.6 µM)	4 (≈ 19.6 µM)	4 (≈ 19.6 µM)	> 8	8 (≈ 39.2 µM)
NNC(=O)c1ccncc1 [ISONIAZID]	> 5	5 (≈ 36.5 µM)	5 (≈ 36.5 µM)	> 5	> 0.2	> 0.2	5 (≈ 36.5 µM)	5 (≈ 36.5 µM)
NC[C@H]1O[C@H](O[C@H]2[C@H](O)[C@@H](O[C@H]3O[C@H](CO)[C@@H](O)[C@H](N)[C@H]3O)[C@H](N)C[C@@H]2N)[C@H](O)[C@@H](O)[C@@H]1O [KANAMYCIN]	8 (≈ 16.5 µM)	–	16 (≈ 33 µM)	8 (≈ 16.5 µM)	32 (≈ 66 µM)	32 (≈ 66 µM)	16 (≈ 33 µM)	8 (≈ 16.5 µM)
CO[C@H]1/C=C/O[C@@]2(C)Oc3c(C)c(O)c4c(O)c(c(/C=N/N5CCN(C)CC5)c(O)c4c3C2=O)NC(=O)/C(C)=C\C=C\[C@H](C)[C@H](O)[C@@H](C)[C@@H](O)[C@@H](C)[C@H](OC(C)=O)[C@@H]1C [RIFAMPIN]	32 (≈ 38.9 µM)	128 (≈ 156 µM)	32 (≈ 38.9 µM)	128 (≈ 156 µM)	4 (≈ 4.86 µM)	64 (≈ 77.8 µM)	> 128	> 128
